In ChEMBL document CHEMBL1201862, “PubChem BioAssay data set” (2004) one finds AC50, EC50 and IC50 data, which are given here for 31 compounds.

The structures appear in SMILES notation. Calls of active or inactive are those of the source.

For experiment [1], the target named is T1, Replicative DNA helicase DnaB (Mycobacterium tuberculosis, UniProt P9WMR3).
T1 sequence (P9WMR3 whole entry): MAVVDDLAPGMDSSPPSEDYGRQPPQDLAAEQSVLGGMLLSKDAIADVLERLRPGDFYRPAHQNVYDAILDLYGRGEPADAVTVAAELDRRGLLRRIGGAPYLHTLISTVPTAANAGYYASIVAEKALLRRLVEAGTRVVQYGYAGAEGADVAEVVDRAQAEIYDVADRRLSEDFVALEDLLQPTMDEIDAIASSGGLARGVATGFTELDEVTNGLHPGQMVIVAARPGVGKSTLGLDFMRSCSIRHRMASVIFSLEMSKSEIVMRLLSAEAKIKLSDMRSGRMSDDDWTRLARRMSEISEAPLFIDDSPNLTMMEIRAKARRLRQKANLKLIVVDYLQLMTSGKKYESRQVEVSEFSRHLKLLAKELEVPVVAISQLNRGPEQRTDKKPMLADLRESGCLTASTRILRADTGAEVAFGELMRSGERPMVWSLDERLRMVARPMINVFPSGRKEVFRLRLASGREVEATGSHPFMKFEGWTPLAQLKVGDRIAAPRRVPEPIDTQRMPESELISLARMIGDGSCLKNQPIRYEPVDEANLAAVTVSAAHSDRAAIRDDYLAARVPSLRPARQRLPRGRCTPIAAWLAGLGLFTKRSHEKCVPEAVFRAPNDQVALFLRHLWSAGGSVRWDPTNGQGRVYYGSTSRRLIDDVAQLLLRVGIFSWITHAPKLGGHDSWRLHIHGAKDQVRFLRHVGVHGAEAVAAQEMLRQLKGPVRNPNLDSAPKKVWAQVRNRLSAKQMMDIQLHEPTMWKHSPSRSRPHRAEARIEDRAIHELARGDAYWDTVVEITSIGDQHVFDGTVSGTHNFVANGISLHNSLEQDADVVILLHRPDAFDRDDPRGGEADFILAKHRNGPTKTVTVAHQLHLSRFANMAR
Nature of the experiment: DnaB intein splicing inhibitors, dose response, biochemical, cell-free fluorescence (AID 449749). In kind it is functional.

A further experiment addresses T2, Protein RecA (Mycobacterium tuberculosis, UniProt P9WHJ3).
T2 sequence (P9WHJ3 whole entry): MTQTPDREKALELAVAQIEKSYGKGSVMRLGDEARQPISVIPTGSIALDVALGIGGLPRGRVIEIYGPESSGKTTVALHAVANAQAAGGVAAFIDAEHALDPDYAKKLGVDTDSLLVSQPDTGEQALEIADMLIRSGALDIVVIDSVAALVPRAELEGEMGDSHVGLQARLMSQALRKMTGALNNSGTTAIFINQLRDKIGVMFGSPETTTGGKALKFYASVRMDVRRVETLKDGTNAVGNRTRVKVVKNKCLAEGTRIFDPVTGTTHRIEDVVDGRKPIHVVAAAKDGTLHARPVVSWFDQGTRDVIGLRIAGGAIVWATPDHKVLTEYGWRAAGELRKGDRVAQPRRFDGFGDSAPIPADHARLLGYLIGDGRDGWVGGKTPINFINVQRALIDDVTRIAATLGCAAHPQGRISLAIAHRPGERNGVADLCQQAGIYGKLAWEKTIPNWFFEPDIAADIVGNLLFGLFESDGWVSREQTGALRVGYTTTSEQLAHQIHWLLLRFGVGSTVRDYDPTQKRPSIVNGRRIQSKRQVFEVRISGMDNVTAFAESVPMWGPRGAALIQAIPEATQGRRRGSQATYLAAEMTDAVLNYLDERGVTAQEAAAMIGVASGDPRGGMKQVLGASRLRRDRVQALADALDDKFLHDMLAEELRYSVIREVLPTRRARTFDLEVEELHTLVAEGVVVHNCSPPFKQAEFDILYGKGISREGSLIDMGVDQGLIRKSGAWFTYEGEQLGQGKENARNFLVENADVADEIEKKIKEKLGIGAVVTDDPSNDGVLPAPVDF
Nature of the experiment: Fluorescence Cell-Free Homogeneous Dose Retest to Identify Inhibitors of RecA-Intein Splicing Activity. [Related pubchem assays (depositor defined):AID2097, AID2223, AID489010, AID492950]. Format: functional.

The nature of experiment [2]: Luminescence Cell-Based Dose Response HTS to Identify Activators of Luciferase Translation or Activity in H4 […] Cells. [Related pubchem assays: 1829 (Project Summary), 1814 (Primary HTS)]. In kind it is functional.
Experiment [3] is described as follows: Luminescence Cell-Based Dose Confirmation HTS to Identify Activators of 5'UTR Stem-Loop Driven Alpha-Synuclein mRNA Translation in H4 Neuroglioblastoma Cells. [Related pubchem assays: 1829 (Project Summary), 1814 (Primary HTS)]. Format: functional.
For a further experiment, the system named is H4. Nature of the experiment: Luminescence Cell-Based Dose Response HTS to Identify Activators of 5'UTR Stem-Loop Driven Prion Protein mRNA Translation in H4 Neuroglioblastoma Cells. [Related pubchem assays: 1829 (Project Summary), 1814 (Primary HTS)]. In kind it is functional. As to conditions: Homo sapiens.
The next experiment deals with H9c2. Nature of the experiment: cells. The note with it: Rattus norvegicus, H9c2, Myocardium. Format: functional, cell-based.
In experiment [4] the target is T3, Ubiquitin-conjugating enzyme E2 N (Homo sapiens, UniProt P61088).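 Note: Dose-response confirmation in a TR-FRET assay detecting UBC13-driven polyubiquitin chain formation, inhibition measured.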
T3 sequence (P61088 whole entry): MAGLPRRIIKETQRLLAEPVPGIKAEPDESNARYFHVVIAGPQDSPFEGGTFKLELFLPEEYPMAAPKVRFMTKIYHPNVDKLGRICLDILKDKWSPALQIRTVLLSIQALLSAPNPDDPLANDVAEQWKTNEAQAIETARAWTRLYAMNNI
Format: functional.

The target of experiment [5] is T4, Zinc finger protein mex-5 (Caenorhabditis elegans, UniProt Q9XUB2).
T4 sequence (Q9XUB2 whole entry): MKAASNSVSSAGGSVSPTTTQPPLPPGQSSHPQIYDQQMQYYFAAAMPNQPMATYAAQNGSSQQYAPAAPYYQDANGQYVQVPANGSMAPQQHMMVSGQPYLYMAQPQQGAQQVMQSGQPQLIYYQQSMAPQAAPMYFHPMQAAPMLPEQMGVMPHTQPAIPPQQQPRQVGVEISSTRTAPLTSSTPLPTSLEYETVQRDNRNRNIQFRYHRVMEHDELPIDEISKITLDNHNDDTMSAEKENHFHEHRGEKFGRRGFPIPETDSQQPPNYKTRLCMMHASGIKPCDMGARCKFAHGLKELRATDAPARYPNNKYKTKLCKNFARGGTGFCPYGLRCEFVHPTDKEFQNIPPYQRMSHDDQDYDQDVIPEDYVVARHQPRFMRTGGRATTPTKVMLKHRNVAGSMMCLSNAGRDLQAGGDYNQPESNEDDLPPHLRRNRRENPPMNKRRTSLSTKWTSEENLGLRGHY
Nature of the experiment: potency of MEX-5 RNA-binding blockers – biochemical, C. elegans, fluorescence polarization, dose response (AID 1960). In general terms: Polarisation of emitted light reports the rotation of a fluorescent probe.

The target of experiment [6] is T5, RNA-binding protein pos-1 (Caenorhabditis elegans, UniProt G5EF15).
T5 sequence (G5EF15 whole entry): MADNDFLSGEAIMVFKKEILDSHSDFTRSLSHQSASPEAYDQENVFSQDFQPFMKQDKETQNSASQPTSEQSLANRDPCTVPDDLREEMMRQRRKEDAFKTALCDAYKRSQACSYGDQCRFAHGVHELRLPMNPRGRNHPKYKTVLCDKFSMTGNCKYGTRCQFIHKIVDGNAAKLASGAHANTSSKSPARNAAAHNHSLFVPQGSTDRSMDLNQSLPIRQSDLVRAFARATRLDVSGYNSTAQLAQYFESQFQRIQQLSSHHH
Nature of the experiment: disruptors of C. elegans POS-1 RNA interaction – biochemical, fluorescence polarization, dose response (AID 1964).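 Note: purified POS-1 fused to maltose binding protein made in E. coli; potency of compounds blocking POS-1 binding to fluorescent RNA.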

For another experiment, the system named is INS1. Nature of the experiment: INS-1E survival protection against cytokine death – cell-based, luminescence, retest, dose response (AID 449756).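 Note: cell death triggered by IL-1 beta plus TNF-alpha plus IFN-gamma mixture; protective hits raise ATP signal compared with cytokine alone wells.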 In kind it is functional. As to conditions: Rattus norvegicus.
The target in experiment [7] is FAD-linked sulfhydryl oxidase ALR (Homo sapiens, UniProt P55789). Nature of the experiment: ALR-catalysed DTT oxidation blockers – biochemical, H2O2 detection, luminescence, cherry-pick, dose response (AID 493248).
Sequence of FAD-linked sulfhydryl oxidase ALR (P55789 whole entry): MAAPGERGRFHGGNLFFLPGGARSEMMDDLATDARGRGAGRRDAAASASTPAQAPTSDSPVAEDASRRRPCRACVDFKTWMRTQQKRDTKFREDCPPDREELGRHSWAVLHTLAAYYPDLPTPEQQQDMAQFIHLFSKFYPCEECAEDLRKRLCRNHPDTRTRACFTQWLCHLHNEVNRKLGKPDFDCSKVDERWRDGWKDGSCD
Experiment [8] can be described thus: reduction of Shn3 3'UTR-driven luciferase in osteoblasts – cell-based, Clone20 osteoblasts, firefly luciferase, cherry-picked, dose response (AID 624132).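 Note: firefly luciferase luminescence from reporter carrying the Shn3 3'UTR in osteoblasts.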 Format: functional.
A short description of the next experiment: cells. In kind it is functional.

In general, AC50 refers to the concentration giving half of the maximal activity seen. One may read the EC50 as the concentration at which the effect is half-maximal. In the case of `Oc1ccc(O)c(Cc2nc3ccccc3s2)c1`, the AC50 in experiment [1] is 33.1 µM (active). Besides, the EC50 on Protein RecA is > 380 µM (inactive). Consider `CC(=O)C(=NNc1ccc2c(c1)OCO2)C(C)=O`, for which the results for the EC50 in [2] and in [3] were 27.8 µM (active) and 13.9 µM (active), respectively. For `Cc1cnc(C(=O)Nc2ccc(OC(F)(F)F)cc2)cn1`, the EC50 was 17.5 µM (active) in experiment [2], 98.1 µM (active) with H4 and 13.9 µM (active) in experiment [3].

The term IC50 denotes the point on the concentration scale where inhibition reaches its midpoint. Regarding `Cc1cc(NC(=O)C2CCCCC2)nc2c1c(=O)oc1ccccc12`, in the experiment with H9c2, the IC50 is 7.59 µM (active).

On to `Cc1cc(N2CCN(C)CC2)nc2ccc(NC(=S)N3CCN(c4cccc(Cl)c4)CC3)cc12`, for which the IC50 in experiment [4] was > 20 µM (inactive). Consider `COc1ccc(NC2=C(Cl)C(=O)N(CCc3ccccc3)C2=O)c(OC)c1`, for which the figures for the EC50 (in experiment [2]; with H4; in experiment [3]) were 8.34 µM (active), 33.2 µM (active) and 5.35 µM (active), respectively. For `Cc1ccc(S(=O)(=O)C(C#N)c2nc3ccccc3nc2N2CCC(C)CC2)cc1` (stereo not given), the EC50 is 24.6 µM (active) in experiment [5] and > 300 µM (inconclusive) in experiment [6]. In the same order, the values of `CCC(=O)OC1(C)C(=O)C=C2C=C(CCCC(=O)OC)OC=C2C1=O` (stereo not given) are 22.8 µM (active) and 27.8 µM (active). For `COc1ccc(C2C=C(c3ccc(Br)s3)Nc3ncnn32)cc1OC` (stereo not given) the same measures were 6.36 µM (inconclusive) and 7.82 µM (active).

`Cc1ccc(NC(=O)C2=C(O)CCn3c2nc2ccccc23)cc1`: the EC50 in [2] was 12.5 µM (active); in the experiment on H4, > 60 µM (not active); in experiment [3] it was > 120 µM (not active).

Take `CCn1ccnc1CN(C)Cc1nc(-c2ccc3c(c2)OCO3)no1`: the EC50 in [2] is 12.5 µM (active); in the experiment on H4 it was 21.4 µM (active); in experiment [3] it was 6.38 µM (active). With `COc1ccc(NC(=O)c2oc3ccc(S(=O)(=O)N4CCOCC4)cc3c2C)cc1`, the IC50 with H9c2 was > 79 µM (inactive). On to `CCOC(=O)c1[nH]c(C)c(C(=O)Nc2ccc(C)c(Cl)c2)c1C`, for which the results for the EC50 (in experiment [2]; in the experiment on H4; in experiment [3]) were 13.3 µM (active), > 120 µM (not active) and > 120 µM (not active), respectively.

For the compound `CCC(=O)OC1(C)C(=O)C=C2C=C(CCCCNC(=O)OC(C)(C)C)OC=C2C1=O` (stereo not given), the EC50 in experiment [5] was 28.4 µM (active); in experiment [6] it was 33.5 µM (active). In the same order, the values of `COC(=O)c1ccccc1-n1c(CCC(=O)O)ccc1-c1ccccc1` are > 300 µM (not active) and > 300 µM (not active). Regarding `COc1ccccc1NC(=O)c1cc(-c2cc(OC)c(OC)c(OC)c2)nc2ccccc12`, the IC50 in the experiment on H9c2 was > 79 µM (inactive).

For the compound `O=C1c2ccccc2C(=O)N1CCCc1nc(-c2ccncc2)no1`, the EC50 in [5] and in experiment [6] was > 300 µM (not active) each time.

`COc1ccccc1CNC(=O)c1ccc2c(=O)n(CCCN3CCCC3=O)c(=S)[nH]c2c1`: the IC50 in [4] is > 20 µM (inactive). For the compound `COC(=O)c1cc(OC)c(OC)cc1NC(=O)c1ccc(C)o1`, in the experiment with H9c2, the IC50 was > 79 µM (inactive).

Consider `CCn1c(C)cc(/C=C2\C(=O)NC(=O)N(c3ccccc3C)C2=O)c1C`, for which the half-maximal effective concentration (EC50) in [5] and in experiment [6] was > 300 µM (not active) each time.

Turning to `Cc1cc(NC(=O)c2cccs2)cc(-c2nc3ncccc3o2)c1O`, in the experiment on H9c2, the IC50 was > 79 µM (inactive). On to `O=C1N=C(Nc2ccccc2)S/C1=C\c1cccn1-c1ccccc1`, for which the concentration for a half-maximal effect (EC50) is 32.5 µM (active) in experiment [2], > 120 µM (not active) with H4 and > 120 µM (not active) in [3]. In the case of `COc1ccccc1NCC(=O)N1CCN(S(=O)(=O)c2ccccc2)CC1`, the AC50 with INS1 is > 260 µM (inactive). In the case of `O=C(NCCCN1CCCC1)c1ccc2c(c1)N(Cc1ccccc1)CCS2`, the AC50 in experiment [7] was 0.022 µM (active). In experiment [4], the IC50 was > 20 µM (inactive). With `Cc1ccc(S(=O)(=O)N2CCOCC2)cc1C(=O)Nc1ccc(S(=O)(=O)Nc2nccs2)cc1`, the EC50 in experiment [5] and in [6] was > 300 µM (not active) each time.

For `Cc1ccc2c(c1)CCCN2C(=O)CCc1nc(O)c2ccccc2n1`, the IC50 in the experiment with H9c2 was > 79 µM (inactive).

Take `O=[N+]([O-])c1ccc2c(c1)nc(O)c1ccccc12`: the IC50 in the experiment with H9c2 was > 79 µM (inactive). Same read-out and setting: then `Cn1c(=O)c2nc(NN=Cc3cccc(Br)c3)[nH]c2n(C)c1=O`, with > 79 µM (inactive). Take `COc1ccc(C(O)c2nc(-c3cccc(F)c3)cs2)cc1` (stereo not given): the AC50 in experiment [8] was 41.9 µM (active). With `O=C(N/N=C/c1ccccn1)c1cccc([N+](=O)[O-])c1`, the values for the IC50 in “cells” and in the experiment with H9c2 were 22.2 µM (active) and > 79 µM (inactive), respectively. In the case of `Cc1ccc(/N=C/c2c(O)[nH]c3ccccc23)c([N+](=O)[O-])c1`, the EC50 in the experiment on H4 is 22.3 µM (inconclusive).
